Results reported in US12258336B2, “Preparation of seimicarbazide-sensitive amine oxidase inhibitor and use thereof” (SHANGHAI ENNOVABIO PHARMACEUTICALS CO., LTD., priority 2018, dated 2025).
Read-outs that look alike come from different tables or passages of the source.

Legend:
Format in all cases: in vivo
[1] = tested on: ALOX5AP, SOCS3 and TLR7 gene expression in retina; test: LPS-induced ocular inflammation model: qPCR of inflammation-related genes in retina; details: rat, 6 mg/kg oral, compared with model group
Procedure: (§1) 22 rats (7-8 weeks, 220-250 g) were divided into 3 groups, which were control group (6), model group (8) and compound treated group (8). For the model group and compound treated group, ocular inflammation was induced by a single injection of 8 μg/100 μL lipopolysaccharide (Sigma-Aldrich-L2880) into the footpad. The rats were grouped according to their body weight 1 h before induction. Example 4 compound (6 mg/kg, 10 mL/kg) or vehicle (10 mL/kg) were orally administered respectively. 24 hours after induction, the anterior aqueous humor was collected and the eyeballs were removed to dissect the retina. Ocular inflammation was quantitatively evaluated by measuring the protein concentration and cell number in the aqueous humor. qPCR method was used to verify changes in the expression of ocular retinal inflammation-related genes.
• 1) Primers were synthesized, with the information shown as follows:
• 2) Retinal RNA was extracted according to operating instructions of RNA extraction kit (RNeasy Mini Kit, Qiagen-74104), and then the RNA was reverse-transcribed into cDNA (High Capacity cDNA Reverse Transcription Kits, ABI-4374966). The obtained cDNA was diluted 10 times to serve as qPCR reaction template. According to instructions of Power SYBR Green kit (ABI-A25918), qPCR reaction was performed on CFX384 Real-Time qPCR equipment. Quantitative analysis of expression changes for each gene expression was performed using CFX Maestro software by ΔΔCt method, with UBC as internal housekeeping gene.

[2] = target: T1, SSAO/VAP-1 (Rattus norvegicus, UniProt O08590); test: Inhibitory activity on SSAO/VAP-1 in animal tissues after oral administration; details: 24 hours post single administration, mean ± SEM
T1 construct: from tissue; host or cells: rat plasma, brain, retina, small intestine, lung, liver, kidney
T1 sequence (O08590 1-763): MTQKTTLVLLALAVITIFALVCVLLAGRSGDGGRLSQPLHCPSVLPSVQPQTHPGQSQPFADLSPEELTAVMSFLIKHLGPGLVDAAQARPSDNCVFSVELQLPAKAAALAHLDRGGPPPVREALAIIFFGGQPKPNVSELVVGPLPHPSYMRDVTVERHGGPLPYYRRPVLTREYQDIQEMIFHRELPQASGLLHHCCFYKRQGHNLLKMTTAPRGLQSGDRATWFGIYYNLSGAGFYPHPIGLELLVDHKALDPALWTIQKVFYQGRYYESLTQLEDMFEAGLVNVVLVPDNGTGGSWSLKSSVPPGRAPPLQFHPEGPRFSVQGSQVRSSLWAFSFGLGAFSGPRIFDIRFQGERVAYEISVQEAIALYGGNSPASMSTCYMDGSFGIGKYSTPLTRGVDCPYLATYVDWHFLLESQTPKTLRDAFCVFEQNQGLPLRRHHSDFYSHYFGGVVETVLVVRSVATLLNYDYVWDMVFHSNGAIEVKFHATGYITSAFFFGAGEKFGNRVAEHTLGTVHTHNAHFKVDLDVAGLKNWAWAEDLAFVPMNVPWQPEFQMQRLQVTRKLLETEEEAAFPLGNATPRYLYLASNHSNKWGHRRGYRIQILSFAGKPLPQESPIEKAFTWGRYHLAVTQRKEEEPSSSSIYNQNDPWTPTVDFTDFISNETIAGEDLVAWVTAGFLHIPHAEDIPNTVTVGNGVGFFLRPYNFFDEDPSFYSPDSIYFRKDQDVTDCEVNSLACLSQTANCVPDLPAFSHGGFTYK
Procedure: MAO-Glo Assay kit (Promega, V1402) was used to determine the activity of SSAO in animal tissues. After test compounds were adminstered to the animal, SSAO enzyme activity was calculated by measuring the activity of the monoamine oxidases in the animal tissue homogenate that was insensitive to MAO inhibitors Clogyline and Pargyline. The compounds were orally administered to rats at different doses, and same volume of vehicle was orally administered to control animals. Animal plasma, brain, retina, small intestine, lung, liver, and kidney were respectively collected 24 hours after administration (the animals were perfused with PBS before the collection of small intestine, lung, liver, and kidney) and stored in a −80° C. refrigerator until analysis. Each tissue was homogenized in tissue homogenate lysis buffer (20 mM HEPES, pH 7.4, 150 mM NaCl, 1 mM EDTA, 1 mM EGTA, 1% Triton X-100 and 1× Roche Complete protease inhibitor tablet). The homogenate was centrifuged at 12000 rpm at 4° C. for 30 minutes to remove tissue fragments. 5 μL of supernatant and 2 μL of mixture of Clogyline (10 μM) and Pargyline (10 μM) were incubated for 10 minutes at room temperature. Then 2 μL of substrate from MAO-Glo assay kit was added to the mixture, and reacted at room temperature for 60 minutes. Detection reagents were added to quench the reaction according to instructions. The fluorescein data was read by Biotek Neo2. The activity of monoamine oxidase in tissues that is not sensitive to MAO inhibitors was used to represent the activity of SSAO. Percentage of SSAO activity in administered animals was compared with that of control animals to calculate the compound inhibition rate.

[3] = tested on: LPS-induced inflammatory disease model in rats; test: LPS-induced ocular inflammation model: protein concentration and cell number in aqueous humor; details: rat, LPS footpad injection, 6 mg/kg oral 1 h before induction, 24 hours after induction, mean±SEM
Procedure: as §1
10 μL of aqueous humor was diluted in 40 μL of PBS and mixed, then 25 μL of mixture was mixed with 75 μL of PBS, and centrifuged at 300 g for 5 min at 4° C. 55 μL of supernatant was aspirated carefully and the protein concentration was determined according to the method described in the BCA Protein Assay Kit (Pierce-23227); after the remaining sample was resuspended, 40 μL of cell suspension was added into 100 μL of 1% FBS/PBS to analyze and count live cells using NovoCyte 3130 flow cytometry after excluding cell debris.

[4] = brain, read-out: remaining SSAO activity percentage (SSAO activity %), Brain
[5] = kidney, read-out: remaining SSAO activity percentage (SSAO activity %), kidney
[6] = liver, read-out: remaining SSAO activity percentage (SSAO activity %), Liver
[7] = lung, read-out: remaining SSAO activity percentage (SSAO activity %), Lung
[8] = plasma, read-out: remaining SSAO activity percentage (SSAO activity %), Plasma
[9] = retina, read-out: remaining SSAO activity percentage (SSAO activity %), Retina
[10] = small intestine, read-out: remaining SSAO activity percentage (SSAO activity %), Small intestine

remaining activity at 0.005 mg/kg [2, 4]: 98.3 ± 25.4%
remaining activity at 0.005 mg/kg [2, 5]: 99.2 ± 4.1%
remaining activity at 0.005 mg/kg [2, 6]: 108 ± 33.5%
remaining activity at 0.005 mg/kg [2, 7]: 94.9 ± 17.2%
remaining activity at 0.005 mg/kg [2, 8]: 61.7 ± 8.2%
remaining activity at 0.005 mg/kg [2, 9]: 65 ± 14%
remaining activity at 0.025 mg/kg [2, 4]: 143 ± 68.3%
remaining activity at 0.025 mg/kg [2, 5]: 58.7 ± 12.1%
remaining activity at 0.025 mg/kg [2, 6]: 14.4 ± 8.1%
remaining activity at 0.025 mg/kg [2, 7]: 64 ± 20.3%
remaining activity at 0.025 mg/kg [2, 8]: 58.6 ± 4.2%
remaining activity at 0.025 mg/kg [2, 9]: 49.1 ± 7.1%
remaining activity at 0.12 mg/kg [2, 4]: 75.4 ± 7.4%
remaining activity at 0.12 mg/kg [2, 5]: 46.3 ± 3.5%
remaining activity at 0.12 mg/kg [2, 6]: 40.1 ± 8.2%
remaining activity at 0.12 mg/kg [2, 7]: 39.8 ± 11.3%
remaining activity at 0.12 mg/kg [2, 8]: 33.7 ± 1.9%
remaining activity at 0.12 mg/kg [2, 9]: 25.1 ± 5.3%
remaining activity at 0.12 mg/kg [2, 10]: 96.9 ± 21.7%
remaining activity at 0.6 mg/kg [2, 4]: 26.5 ± 11.8%
remaining activity at 0.6 mg/kg [2, 5]: 26.2 ± 10.1%
remaining activity at 0.6 mg/kg [2, 6]: 3 ± 7.6%
remaining activity at 0.6 mg/kg [2, 7]: 14.1 ± 3.8%
remaining activity at 0.6 mg/kg [2, 8]: 12.9 ± 2.2%
remaining activity at 0.6 mg/kg [2, 9]: 8 ± 1.2%
remaining activity at 0.6 mg/kg [2, 10]: 38.9 ± 3.2%
remaining activity at 3 mg/kg [2, 4]: 22.1 ± 7.7%
remaining activity at 3 mg/kg [2, 5]: 0.7 ± 1.8%
remaining activity at 3 mg/kg [2, 6]: 5.3 ± 3.2%
remaining activity at 3 mg/kg [2, 7]: 4.6 ± 2.5%
remaining activity at 3 mg/kg [2, 8]: 1.8 ± 0.2%
remaining activity at 3 mg/kg [2, 9]: 5.2 ± 2.4%
remaining activity at 3 mg/kg [2, 10]: 11.1 ± 4.4%
remaining activity at 15 mg/kg [2, 4]: 4 ± 1.7%
remaining activity at 15 mg/kg [2, 5]: 2.4 ± 1.3%
remaining activity at 15 mg/kg [2, 6]: -2.4 ± 5.4%
remaining activity at 15 mg/kg [2, 7]: 2.2 ± 0.2%
remaining activity at 15 mg/kg [2, 8]: 1.1 ± 0.4%
remaining activity at 15 mg/kg [2, 9]: 3 ± 2.2%
remaining activity at 15 mg/kg [2, 10]: 1.1 ± 0.9%
SMILES: NC/C(=C\F)COc1cnc(N2CCN(C3COC3)CC2)nc1 [Example 4, (E)-3-fluoro-2-(((2-(4-(oxbutan-3-yl)piperazin-1-yl)pyrimidin-5-yl)oxo)methyl)prop-2-en-1-amine]
expression level of ALOX5AP gene in retina [1]: significantly reduce
expression level of SOCS3 gene in retina [1]: significantly reduce
expression level of TLR7 gene in retina [1]: significantly reduce
cell number in aqueous humor ([3]; model group 48.28±21.46): 5.07±0.80 *10^4 cell/mL
protein concentration in aqueous humor ([3]; model group 9730.04±1232.30): 7275.44 ± 622.66 µg/mL
